Reference: ChEMBL document CHEMBL4376834, “Discovery of 4H-Chromen-4-one Derivatives as a New Class of Selective Rho Kinase (ROCK) Inhibitors, which Showed Potent Activity in ex Vivo Diabetic Retinopathy Models” (J Med Chem, 2019)

Legend:
[1] = target: PI3-kinase p110-alpha/p85-alpha (Homo sapiens, UniProt P42336, E542K); experiment: Inhibition of recombinant human full length PI3K p110alpha/p85alpha E542K mutant using phosphatidylinositol 4,5-bisphosphate as substrate incubated for 40 mins in presence of [gamma33P]ATP by radiometric scintillation counting analysis
[2] = target: Casein kinase I isoform delta (Homo sapiens, UniProt P48730); experiment: Inhibition of recombinant human CK1delta (1 to 294 residues) using KRRRALS(p)VAS as substrate incubated for 40 mins in presence of [gamma-33ATP] by radiometric scintillation counting analysis
[3] = target: Eukaryotic elongation factor 2 kinase (Homo sapiens, UniProt O00418, H23R); experiment: Inhibition of recombinant human eEF2K H23R mutant (2 to end residues) using RKKFGESEKTKTK as substrate after 40 mins in presence of [gamma-33ATP] by radiometric scintillation counting analysis
Sequence of Eukaryotic elongation factor 2 kinase (O00418 2-725 H23R limits assumed): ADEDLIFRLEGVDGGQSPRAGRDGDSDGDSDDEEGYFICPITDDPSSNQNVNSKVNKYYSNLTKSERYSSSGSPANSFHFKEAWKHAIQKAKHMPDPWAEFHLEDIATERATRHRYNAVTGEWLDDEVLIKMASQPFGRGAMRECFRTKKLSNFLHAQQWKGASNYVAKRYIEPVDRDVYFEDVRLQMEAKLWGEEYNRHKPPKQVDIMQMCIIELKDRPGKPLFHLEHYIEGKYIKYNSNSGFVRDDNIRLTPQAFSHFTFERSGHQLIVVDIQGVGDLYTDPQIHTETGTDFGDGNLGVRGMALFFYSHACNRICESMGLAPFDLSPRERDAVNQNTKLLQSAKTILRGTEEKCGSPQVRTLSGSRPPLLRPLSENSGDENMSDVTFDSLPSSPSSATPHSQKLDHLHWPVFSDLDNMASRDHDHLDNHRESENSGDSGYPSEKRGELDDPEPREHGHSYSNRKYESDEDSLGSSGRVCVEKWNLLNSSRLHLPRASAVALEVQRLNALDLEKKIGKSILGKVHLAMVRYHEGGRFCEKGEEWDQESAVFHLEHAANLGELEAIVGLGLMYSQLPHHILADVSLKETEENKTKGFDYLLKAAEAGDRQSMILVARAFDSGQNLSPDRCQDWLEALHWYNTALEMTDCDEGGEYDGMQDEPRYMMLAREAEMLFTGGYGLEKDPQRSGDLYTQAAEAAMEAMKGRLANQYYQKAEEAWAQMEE

[4] = Inhibition of recombinant human MER H628Q/R794A double mutant (557 to 882 residues) using KKLNRTLSFAEPG as substrate incubated for 40 mins in presence of [gamma-33ATP by radiometric scintillation counting analysis
[5] = target: Serine/threonine-protein kinase N1 (Homo sapiens, UniProt Q16512, V901I); experiment: Inhibition of recombinant human PRK1 V901I (498 to end residues) using KKLNRTLSFAEPG as substrate incubated for 40 mins in presence of [gamma33P]ATP by radiometric scintillation counting analysis
[6] = target: Mitogen-activated protein kinase kinase kinase 9 (Homo sapiens, UniProt P80192); experiment: Inhibition of recombinant human MLK1 (134 to 414 residues) using casein as substrate incubated for 40 mins in presence of [gamma-33ATP by radiometric scintillation counting analysis
[7] = target: Epidermal growth factor receptor (Homo sapiens, UniProt P00533, T790M); experiment: Inhibition of recombinant human EGFR T790M mutant (696 to end residues) using poly(Glu, Tyr) 4:1 as substrate after 40 mins in presence of [gamma-33ATP] by radiometric scintillation counting analysis
[8] = target: ALK tyrosine kinase receptor (Homo sapiens, UniProt Q9UM73); experiment: Inhibition of human recombinant ALK (1058 to end residues) using KKKSPGEYVNIEF as substrate incubated for 40 mins in presence of [gamma-33P]ATP by radiometric scintillation counting analysis
Insulin receptor = Insulin receptor (Homo sapiens, UniProt P06213); experiment: Inhibition of human recombinant activated IR (1005 to 1310 residues) using KKSRGDYMTMQIG as substrate after 40 mins by [gamma-33ATP]by radiometric scintillation counting analysis
[9] = target: 3-phosphoinositide-dependent protein kinase 1 (Homo sapiens, UniProt O15530); experiment: Inhibition of recombinant human PDK1 (52 to end residues) using KTFCGTPEYLAPE as substrate incubated for 40 mins in presence of [gamma33P]ATP by radiometric scintillation counting analysis
[10] = target: Serine/threonine-protein kinase pim-3 (Homo sapiens, UniProt Q86V86); experiment: Inhibition of recombinant human Pim3 (2 to end residues) using RSRHSSYPAGT as substrate incubated for 40 mins in presence of [gamma33P]ATP by radiometric scintillation counting analysis
[11] = target: High affinity nerve growth factor receptor (Homo sapiens, UniProt P04629); experiment: Inhibition of recombinant human TRKA (440 to end residues) using KKKSPGEYVNIEF as substrate incubated for 40 mins in presence of [gamma33P]ATP by radiometric scintillation counting analysis
Sequence of High affinity nerve growth factor receptor (P04629 whole entry, the tested form may be a part): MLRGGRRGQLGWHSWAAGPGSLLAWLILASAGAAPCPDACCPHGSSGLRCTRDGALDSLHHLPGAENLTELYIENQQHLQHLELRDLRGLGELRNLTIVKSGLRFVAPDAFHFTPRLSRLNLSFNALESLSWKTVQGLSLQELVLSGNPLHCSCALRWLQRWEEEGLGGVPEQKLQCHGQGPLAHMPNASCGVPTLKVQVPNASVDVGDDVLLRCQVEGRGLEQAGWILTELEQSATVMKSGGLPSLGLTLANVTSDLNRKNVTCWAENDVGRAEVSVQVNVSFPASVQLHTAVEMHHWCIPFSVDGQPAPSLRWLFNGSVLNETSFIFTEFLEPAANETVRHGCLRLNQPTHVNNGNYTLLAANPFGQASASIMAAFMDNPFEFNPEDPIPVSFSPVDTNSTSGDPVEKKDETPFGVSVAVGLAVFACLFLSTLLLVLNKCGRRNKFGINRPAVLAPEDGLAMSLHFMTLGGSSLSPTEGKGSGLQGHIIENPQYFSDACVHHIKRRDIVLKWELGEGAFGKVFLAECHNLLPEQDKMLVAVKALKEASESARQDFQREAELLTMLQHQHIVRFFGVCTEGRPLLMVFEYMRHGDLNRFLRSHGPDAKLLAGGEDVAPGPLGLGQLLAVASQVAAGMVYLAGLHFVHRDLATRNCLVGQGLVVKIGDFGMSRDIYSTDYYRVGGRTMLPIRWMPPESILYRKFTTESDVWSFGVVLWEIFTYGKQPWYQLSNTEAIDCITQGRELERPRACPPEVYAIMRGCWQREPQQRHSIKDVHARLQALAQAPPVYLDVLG

[12] = target: Fibroblast growth factor receptor 4 (Homo sapiens, UniProt P22455); experiment: Inhibition of recombinant human FGFR4 (442 to 755 residues) using poly(Glu, Tyr) 4:1 as substrate after 40 mins in presence of [gamma-33ATP] by radiometric scintillation counting analysis
[13] = target: Receptor tyrosine-protein kinase erbB-4 (Homo sapiens, UniProt Q15303); experiment: Inhibition of recombinant human ERBB4 (706 to 991 residues) using poly(Glu, Tyr) 4:1 as substrate after 40 mins in presence of [gamma-33ATP] by radiometric scintillation counting analysis
CDK4/Cyclin D3 = CDK4/Cyclin D3 (Homo sapiens, UniProt P11802); experiment: Inhibition of recombinant full length human CDK4/CyclinD3 using Rb fragment as substrate incubated for 40 mins in presence of [gamma-33ATP] by radiometric scintillation counting analysis; format: protein-complex assay
[14] = target: Fibroblast growth factor receptor 2 (Homo sapiens, UniProt P21802, N549H); experiment: Inhibition of recombinant human FGFR2 N549H mutant (456 to 765 residues) using GGEEEEYFELVKK as substrate after 40 mins in presence of [gamma-33ATP] by radiometric scintillation counting analysis
[15] = target: Mitogen-activated protein kinase kinase kinase 10 (Homo sapiens, UniProt Q02779); experiment: Inhibition of recombinant human MLK2 (1 to 499 residues) using myelin basic protein as substrate incubated for 40 mins in presence of [gamma-33ATP by radiometric scintillation counting analysis
Sequence of Mitogen-activated protein kinase kinase kinase 10 (Q02779 whole entry, the tested form may be a part): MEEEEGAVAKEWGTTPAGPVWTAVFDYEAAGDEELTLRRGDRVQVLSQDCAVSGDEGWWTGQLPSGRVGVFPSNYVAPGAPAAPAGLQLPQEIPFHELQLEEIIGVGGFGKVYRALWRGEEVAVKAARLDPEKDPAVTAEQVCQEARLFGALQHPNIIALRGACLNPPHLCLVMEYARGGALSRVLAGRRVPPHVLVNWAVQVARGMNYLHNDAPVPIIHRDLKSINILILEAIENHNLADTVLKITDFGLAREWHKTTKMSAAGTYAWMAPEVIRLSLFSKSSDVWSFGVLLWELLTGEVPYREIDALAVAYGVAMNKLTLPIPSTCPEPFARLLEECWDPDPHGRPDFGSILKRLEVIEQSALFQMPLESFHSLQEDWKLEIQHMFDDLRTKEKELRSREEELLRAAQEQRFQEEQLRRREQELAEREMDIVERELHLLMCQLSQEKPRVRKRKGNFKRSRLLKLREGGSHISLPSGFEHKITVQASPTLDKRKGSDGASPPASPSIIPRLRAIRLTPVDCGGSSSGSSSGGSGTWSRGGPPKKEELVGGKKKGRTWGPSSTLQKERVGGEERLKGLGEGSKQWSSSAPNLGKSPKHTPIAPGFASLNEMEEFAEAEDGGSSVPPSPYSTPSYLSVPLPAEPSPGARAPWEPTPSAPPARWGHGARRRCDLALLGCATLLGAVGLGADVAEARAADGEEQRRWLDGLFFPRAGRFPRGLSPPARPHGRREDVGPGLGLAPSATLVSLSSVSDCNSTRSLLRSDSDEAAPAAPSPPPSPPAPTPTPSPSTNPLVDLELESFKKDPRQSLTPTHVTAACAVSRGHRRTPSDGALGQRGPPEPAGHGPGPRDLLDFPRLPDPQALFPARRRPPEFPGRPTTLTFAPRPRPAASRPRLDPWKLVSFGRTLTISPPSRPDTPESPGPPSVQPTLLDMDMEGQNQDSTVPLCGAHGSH

[16] = target: Testis-specific serine/threonine-protein kinase 3 (Homo sapiens, UniProt Q96PN8); experiment: Inhibition of recombinant full-length human TSSK3 using AMARAASAAALAR as substrate incubated for 40 mins in presence of [gamma33P]ATP by radiometric scintillation counting analysis
Sequence of Testis-specific serine/threonine-protein kinase 3 (Q96PN8 whole entry): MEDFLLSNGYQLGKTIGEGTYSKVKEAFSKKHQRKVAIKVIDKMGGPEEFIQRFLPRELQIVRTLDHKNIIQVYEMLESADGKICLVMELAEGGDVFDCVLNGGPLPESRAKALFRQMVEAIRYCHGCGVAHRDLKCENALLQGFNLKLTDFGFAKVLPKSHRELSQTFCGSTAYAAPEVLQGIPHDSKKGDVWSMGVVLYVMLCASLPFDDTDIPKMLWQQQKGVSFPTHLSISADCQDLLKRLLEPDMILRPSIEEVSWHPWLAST

[17] = target: Proto-oncogene tyrosine-protein kinase receptor Ret (Homo sapiens, UniProt P07949, V804L); experiment: Inhibition of recombinant human Ret V804L mutant (658 to end residues) using KKKVSRSGLYRSP as substrate incubated for 40 mins in presence of [gamma33P]ATP by radiometric scintillation counting analysis
[18] = target: Serine/threonine-protein kinase BRSK2 (Homo sapiens, UniProt Q8IWQ3); experiment: Inhibition of recombinant human BRSK2 (2 to end residues) using KKLNRTLSFAEPG substrate incubated for 40 mins in presence of [gamma-33ATP] by radiometric scintillation counting analysis
Sequence of Serine/threonine-protein kinase BRSK2 (Q8IWQ3 whole entry): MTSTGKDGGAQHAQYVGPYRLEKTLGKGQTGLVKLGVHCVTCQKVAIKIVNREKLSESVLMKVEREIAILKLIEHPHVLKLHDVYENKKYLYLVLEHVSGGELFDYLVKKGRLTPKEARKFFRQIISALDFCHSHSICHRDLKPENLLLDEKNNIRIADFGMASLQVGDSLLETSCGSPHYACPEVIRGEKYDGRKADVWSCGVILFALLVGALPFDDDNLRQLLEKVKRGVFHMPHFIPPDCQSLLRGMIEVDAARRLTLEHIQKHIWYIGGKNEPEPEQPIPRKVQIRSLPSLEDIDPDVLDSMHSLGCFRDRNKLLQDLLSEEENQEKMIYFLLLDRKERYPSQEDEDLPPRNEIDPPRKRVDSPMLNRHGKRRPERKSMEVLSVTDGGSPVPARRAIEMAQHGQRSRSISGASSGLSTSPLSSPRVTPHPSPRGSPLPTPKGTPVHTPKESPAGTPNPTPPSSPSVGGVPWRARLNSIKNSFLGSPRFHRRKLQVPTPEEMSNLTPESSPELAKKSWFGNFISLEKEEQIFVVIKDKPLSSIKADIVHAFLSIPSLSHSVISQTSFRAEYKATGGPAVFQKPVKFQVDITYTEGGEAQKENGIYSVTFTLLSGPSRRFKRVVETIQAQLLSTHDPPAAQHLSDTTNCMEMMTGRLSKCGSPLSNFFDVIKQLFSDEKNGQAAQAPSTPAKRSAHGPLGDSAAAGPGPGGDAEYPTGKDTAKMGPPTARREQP

[19] = target: Serine/threonine-protein kinase Chk2 (Homo sapiens, UniProt O96017, I157T); experiment: Inhibition of recombinant human CHK2 I157T mutant (5 to end residues) using KKKVSRSGLYRSP as substrate incubated for 40 mins in presence of [gamma-33ATP] by radiometric scintillation counting analysis
Sequence of Serine/threonine-protein kinase Chk2 (O96017 whole entry I157T, the tested form may be a part, canonical isoform): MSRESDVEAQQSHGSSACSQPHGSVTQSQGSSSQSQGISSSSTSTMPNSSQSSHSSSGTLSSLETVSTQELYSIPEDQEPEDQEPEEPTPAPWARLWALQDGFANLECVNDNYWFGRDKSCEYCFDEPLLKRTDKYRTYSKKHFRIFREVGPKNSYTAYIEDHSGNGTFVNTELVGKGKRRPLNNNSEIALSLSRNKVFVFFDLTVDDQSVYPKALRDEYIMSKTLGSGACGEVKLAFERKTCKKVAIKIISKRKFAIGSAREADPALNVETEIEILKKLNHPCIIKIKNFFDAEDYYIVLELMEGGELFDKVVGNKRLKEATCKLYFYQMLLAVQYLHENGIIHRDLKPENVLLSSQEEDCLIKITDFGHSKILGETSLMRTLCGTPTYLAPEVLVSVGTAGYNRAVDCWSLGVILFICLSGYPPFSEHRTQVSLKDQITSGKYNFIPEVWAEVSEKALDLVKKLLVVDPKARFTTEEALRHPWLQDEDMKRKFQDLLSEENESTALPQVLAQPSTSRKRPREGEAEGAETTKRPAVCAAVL

[20] = target: Casein kinase I isoform gamma-3 (Homo sapiens, UniProt Q9Y6M4, E302D/K91E/R174G); experiment: Inhibition of recombinant human CK1gamma3 K91E/R174G/E302D triple mutant (1 to 330 residues) using KRRRALS(p)VAS as substrate incubated for 40 mins in presence of [gamma-33ATP] by radiometric scintillation counting analysis
[21] = target: Receptor-type tyrosine-protein kinase FLT3 (Homo sapiens, UniProt P36888, D835Y); experiment: Inhibition of recombinant human FLT3 D835Y mutant (564 to end residues) using EAIYAAPFAKKK as substrate after 40 mins in presence of [gamma-33ATP] by radiometric scintillation counting analysis
[22] = target: Cyclin-dependent kinase-like 3 (Homo sapiens, UniProt Q8IVW4); experiment: Inhibition of recombinant full length human CDKL3 using RRRFRPASPLRGPPK as substrate incubated for 120 mins in presence of [gamma-33ATP] by radiometric scintillation counting analysis
Sequence of Cyclin-dependent kinase-like 3 (Q8IVW4 whole entry): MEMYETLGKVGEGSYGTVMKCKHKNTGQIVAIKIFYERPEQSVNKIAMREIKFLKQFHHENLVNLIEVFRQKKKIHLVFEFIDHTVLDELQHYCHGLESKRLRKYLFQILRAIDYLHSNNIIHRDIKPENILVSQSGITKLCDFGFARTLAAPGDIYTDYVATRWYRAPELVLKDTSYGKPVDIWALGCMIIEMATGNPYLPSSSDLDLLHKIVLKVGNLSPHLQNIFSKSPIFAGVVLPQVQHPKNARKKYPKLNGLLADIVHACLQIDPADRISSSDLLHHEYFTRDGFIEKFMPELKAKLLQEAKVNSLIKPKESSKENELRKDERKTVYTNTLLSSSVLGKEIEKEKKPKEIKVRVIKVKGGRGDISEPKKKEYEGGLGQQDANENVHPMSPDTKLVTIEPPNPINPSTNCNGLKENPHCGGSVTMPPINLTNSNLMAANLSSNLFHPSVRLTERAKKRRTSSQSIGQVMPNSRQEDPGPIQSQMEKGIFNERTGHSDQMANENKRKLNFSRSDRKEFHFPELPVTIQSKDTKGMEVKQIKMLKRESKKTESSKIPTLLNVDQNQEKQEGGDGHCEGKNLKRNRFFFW

Measured: IC50

CN(C)c1ccc(C(=O)Nc2cccc(NC(=O)COc3ccc4c(=O)ccoc4c3)c2)cc1
> 10 µM: [1] | [2] | [3] | [4] | [5] | [6] | [7] | [8] | Insulin receptor | [9] | [10] | [11] | [12] | [13] | CDK4/Cyclin D3 | [14] | [15] | [16] | [17] | [18] | [19] | [20] | [21] | [22]
